# Assay results as given in US20190315823A1, “SMALL CATIONIC ANTI-BIOFILM AND IDR PEPTIDES” (priority 2013, published 2019).
# “And” between values parts separate entries of the source, which are not always exact repeats. Equal values may be shown once. Read-outs that look alike come from different tables or passages of the source. Ends that are not written are not given here. Peptide text beside a SMILES is read from it.
# Tests used:
# [1] = system: human peripheral blood mononuclear cells (MCP-1); experiment: MCP-1 chemokine production by ELISA; format: cell-based
# Procedure: FIG. 19. High production of anti-infective chemokine MCP-1 by human peripheral blood mononuclear cells treated with peptides, as determined by ELISA after 24 hours of stimulation.
# Venous blood (20 ml) from healthy volunteers was collected in Vacutainer® collection tubes containing sodium heparin as an anticoagulant (Becton Dickinson, Mississauga, ON) in accordance with UBC ethical approval and guidelines. Blood was diluted 1:1 with complete RPMI 1640 medium and separated by centrifugation over a Ficoll-Paque® Plus (Amersham Biosciences, Piscataway, N.J., USA) density gradient. White blood cells were isolated from the buffy coat, washed twice in RPMI 1640 complete medium, and the number of peripheral blood mononuclear cells (PBMC) was determined by Trypan blue exclusion. PBMC (5×10^5) were seeded into 12-well tissue culture dishes (Falcon; Becton Dickinson) at 0.75 to 1×10^6 cells/ml at 37° C. in 5% CO2. The above conditions were chosen to mimic conditions for circulating blood monocytes entering tissues at the site of infection via extravasation.
# Following incubation of the cells under various treatment regimens, the tissue culture supernatants were centrifuged at 1000×g for 5 min, then at 10,000×g for 2 min to obtain cell-free samples. Supernatants were aliquoted and then stored at −20° C. prior to assay for various chemokines by capture ELISA (eBioscience and BioSource International Inc., CA, USA respectively)
# [2] = system: E. coli biofilms; experiment: checkerboard titration biofilm synergy (MBIC, FIC); format: cell-based
# Procedure: (§1) Peptides and various conventional antibiotics were analyzed by checkerboard titration into microtiter trays using CLSI methods (Wiegand, I., K. Hilpert, and R. E. W. Hancock. 2008. Nature Protocols 3:163-175), bacteria added and, after overnight incubation at 37° C., the residual biofilm assessed by the crystal violet method mentioned in the body of the grant, with an A595 of 0.2 considered as 100% biofilm inhibition. The effects of the peptide in reducing the minimal biofilm inhibitory concentration (MBIC) of the antibiotic and vice versa were assessed using the Fractional Inhibitory Concentration (FIC) method whereby ΣFTC=FICA+FICB=(CA/MICA)+(CB/MICB), where MBICA and MBICB are the MBICs of peptide A and antibiotic B alone, respectively, and CA and CB (expressed in μg/ml) are the MICs of the drugs in combination. This conventional clinical microbiology assay is interpreted as follows
# [3] = system: S. aureus biofilms; experiment: checkerboard titration biofilm synergy (MBIC, FIC); format: cell-based
# Procedure: as §1
# [4] = system: P. aeruginosa biofilms; details: P. aeruginosa biofilm
# Procedure: as §1
# [5] = system: A. baumannii biofilm; experiment: checkerboard titration biofilm synergy (FIC); format: cell-based
# Procedure: as §1
# [6] = system: K. pneumoniae biofilm; experiment: checkerboard titration biofilm synergy (FIC); format: cell-based
# Procedure: as §1
# [7] = system: Salmonella biofilm; experiment: checkerboard titration biofilm synergy (FIC); format: cell-based
# Procedure: as §1
# [8] = system: Pseudomonas aeruginosa (Pa) biofilm; experiment: static abiotic solid surface (microtiter, crystal violet) / Bioflux biofilm inhibition screen; format: cell-based; details: Pa) biofilm, 10 μg/ml
# Procedure: FIG. 1. Identification of new anti-biofilm peptides active against P. aeruginosa using the microtiter plate screening method with crystal violet staining. […] As a control peptide 1037 was utilized [de la Fuente Nunez et al. 2011].
# Methods of assessment of anti-biofilm activity—Biofilm formation was initially analyzed using a static abiotic solid surface assay as described elsewhere (de la Fuente-Nunez et al., 2012). Dilutions (1/100) of overnight cultures were incubated in BM2 biofilm-adjusted medium [62 mM potassium phosphate buffer (pH 7), 7 mM (NH4)2SO4, 2 mM MgSO4, 10 μM FeSO4, 0.4% (wt/vol) glucose, 0.5% (wt/vol) Casamino Acids], or a nutrient medium such as Luria Broth, in polypropylene microtiter plates (Falcon, United States) in the absence (control) or presence of peptide. Peptide was added at time zero (prior to adding the diluted, overnight cultures) in varying concentrations, and the decrease in biofilm formation was recorded at 22-46 h for most bacteria. Planktonic cells were removed, biofilm cells adhering to the side of the tubes were stained with crystal violet, and absorbance at 595 nm was measured using a microtiter plate reader (Bio-Tek Instruments Inc., United States). Some peptides were screened against two Gram negative organisms, P. aeruginosa and K. pneumoniae using a Bioflux apparatus (AutoMate Scientific, Berkeley, Calif.; http://www.autom8.com/bioflux_biofilm.html), which allows for the high-throughput, real-time analysis of biofilms.
# [9] = antibiotic in combination with peptide 1018
# [10] = antibiotic in combination with peptide DJK5
# [11] = in combination with peptide 1018
# [12] = in combination with peptide DJK5
# [13] = in the presence of peptide 1018
# [14] = in the presence of peptide DJK5
compound,measurement,setting,value
VRRIWRR (VRRIWRR-NH2) [EH1],Notes (IDR immunomodulatory activity),[1],Weaker activity than 1018
VRFRIWRR (VRFRIWRR-NH2) [EH2],Notes (IDR immunomodulatory activity),[1],Weaker activity than 1018
CC[C@H](C)[C@H](NC(=O)[C@H](Cc1c[nH]c2ccccc12)NC(=O)[C@H](CCCNC(=N)N)NC(=O)[C@@H](N)CCCNC(=N)N)C(=O)N[C@@H](CCCNC(=N)N)C(=O)N[C@H](C(=O)N[C@@H](C)C(=O)N[C@H](C(=O)N[C@H](C(=O)N[C@@H](CC(C)C)C(=O)N[C@@H](CCCNC(=N)N)C(=O)N[C@H](C(N)=O)C(C)C)[C@@H](C)CC)C(C)C)C(C)C [HE1],MCP-1 induction,"[1]; 24 hours of stimulation, lowest peptide concentration 20 μg/ml",clearly superior to peptide 1018
CC(C)(O/N=C(\C(=O)N[C@@H]1C(=O)N2C(C(=O)[O-])=C(C[n+]3ccccc3)CS[C@H]12)c1csc(N)n1)C(=O)O [Ceftazidime],FIC,[2]; [9],1
same,FIC,[2]; [10],0.542 and 0.54
same,MBIC,[2]; compound alone,0.4 µg/mL
same,concentration of antibiotic at FIC,[2]; [11],0.1 µg/mL
same,concentration of antibiotic at FIC,[2]; [12],0.2 µg/mL
same,Fold decrease in antibiotic concentration,[2]; [13],4X
same,Fold decrease in antibiotic concentration / antibiotic MIC,[2]; [14],2X
same,FIC,[3]; [9],0.16
same,FIC,[3]; [10],0.375 and 0.38
same,FIC,[3]; antibiotic in combination with peptide DJK6,0.4
same,MBIC,[3]; compound alone,256 µg/mL
same,concentration of antibiotic at FIC,[3]; [11],8-8 μg/ml
same,concentration of antibiotic at FIC,[3]; [12],32 µg/mL
same,Fold decrease in antibiotic concentration,[3]; [13],32X
same,Fold decrease in antibiotic concentration / antibiotic MIC,[3]; [14],8X
same,Fold decrease in antibiotic concentration,[3]; in the presence of peptide DJK6,8
same,FIC,[4]; [9],0.38
same,FIC,[4]; [10],0.51 and 0.5
same,Concentration of antibiotic at the FIC,[4]; [11],1.4 µg/mL
same,Concentration of antibiotic at the FIC,[4]; [12],0.8 µg/mL
same,FIC,[5]; [9],0.37
same,FIC,[5]; [10],0.75
same,Fold decrease in antibiotic MIC in the presence of peptide,[5]; peptide DJK5,2X
same,FIC,[6]; [9],0.75
same,FIC,[6]; [10],0.89
same,Fold decrease in antibiotic MIC in the presence of peptide,[6]; peptide DJK5,16X
same,FIC,[7]; [9],0.31
same,FIC,[7]; [10],0.75
same,Fold decrease in antibiotic MIC in the presence of peptide,[7]; peptide DJK5,4X
CC[C@H](C)[C@H](NC(=O)[C@H](CCCNC(=N)N)NC(=O)[C@H](C)NC(=O)[C@H](CC(C)C)NC(=O)[C@@H](N)CCCNC(=N)N)C(=O)N[C@H](C(=O)N[C@H](C(=O)N[C@H](C(=O)N[C@@H](CCCNC(=N)N)C(=O)N[C@H](C(=O)N[C@@H](CCCNC(=N)N)C(=O)N[C@@H](CCCNC(=N)N)C(N)=O)C(C)C)[C@@H](C)CC)C(C)C)C(C)C [Peptide E3] (H-RLARIVVIRVRR-NH2; N-terminus assumed),% Biofilm Inhibition Pa,[8],47%
VRLIRVWRVIRK (VRLIRVWRVIRK-NH2) [HE7],Notes (IDR immunomodulatory activity),[1],No secretion of MCP-1
